ChEMBL document CHEMBL6074642, “Natural and Bioinspired Lipidic Alkynylcarbinols as Leishmanicidal, Antiplasmodial, Trypanocidal, Fungicidal, Antibacterial, and Antimycobacterial Agents” (J Nat Prod, 2024)
In brackets after ≈: the same amount, converted by molar mass.

Assays:
[1] = test system: Alternaria kikuchiana; assay: Antifungal activity against Alternaria kikuchiana; assay type: functional, organism-based
[2] = test system: Bipolaris sorokiniana; assay: Antifungal activity against Cochliobolus sativus; assay type: functional, organism-based
[3] = test system: Pseudomonas aeruginosa; assay: Antibacterial activity against Pseudomonas aeruginosa assessed as reduction in bacterial growth incubated for 24 hrs by broth microdilution method; assay type: functional, organism-based
[4] = test system: Mycobacterium intracellulare; assay: Antibacterial activity against Mycobacterium intracellulare; assay type: functional, organism-based
[5] = test system: Bacillus subtilis; assay: Antibacterial activity against Bacillus subtilis PY79 assessed as reduction in bacterial growth; assay type: functional, organism-based
[6] = test system: Leishmania donovani; assay: Antileishmanial activity against Leishmania donovani amastigotes infected in J774 macrophage assessed as inhibition of parasite growth incubated for 48 hrs by luciferase assay; assay type: functional, organism-based; settings: J774, 48 h
[7] = test system: Leishmania donovani; assay: Antileishmanial activity against amastigote form of Leishmania donovani infected in BALB/c mouse assessed as inhibition of parasite growth in liver at 10 mg/kg, po measured for 7 days by geimsa staining based analysis relative to control; assay type: functional; design: scale not given: the % may be the effect or the level left; settings: time 7 day
[8] = test system: Phytophthora capsici; assay: Antifungal activity against Phytophthora capsici; assay type: functional, organism-based
[9] = test system: Mycolicibacterium smegmatis; assay: Antimycobacterial activity against Mycobacterium smegmatis ATCC 14468; assay type: functional
[10] = test system: Mycolicibacterium phlei; assay: Antimycobacterial activity against Mycobacterium phlei ATCC 11758; assay type: functional
[11] = test system: Mycolicibacterium aurum; assay: Antimycobacterial activity against Mycobacterium aurum; assay type: functional
[12] = test system: Mycolicibacterium fortuitum; assay: Antimycobacterial activity against Mycobacterium fortuitum ATCC 6841 assessed as bacterial growth inhibition incubated for 72 hrs by resazurin dye based broth microdilution method; assay type: functional
[13] = test system: Mycobacteroides abscessus; assay: Antimycobacterial activity against Mycobacterium abscessus ATCC 19977; assay type: functional
[14] = test system: Plasmodium falciparum; assay: Antiplasmodial activity against Plasmodium falciparum assessed as parasite growth inhibition; assay type: functional, organism-based
[15] = test system: Monilinia fructigena; assay: Antifungal activity against Monilinia fructigena; assay type: functional, organism-based
[16] = test system: Enterococcus faecalis; assay: Antibacterial activity against Enterococcus faecalis; assay type: functional
[17] = test system: Streptococcus pyogenes; assay: Antibacterial activity against Streptococcus pyogenes assessed as bacterial growth inhibition; assay type: functional
[18] = test system: Bacillus subtilis; assay: Antibacterial activity against Bacillus subtilis; assay type: functional
[19] = test system: Mycobacterium tuberculosis; assay: Antimycobacterial activity against Mycobacterium tuberculosis H37Rv assessed as inhibition of bacterial growth incubated for 7 to 14 days by MABA assay; assay type: functional; settings: time 7-14 day
[20] = test system: Mycobacterium tuberculosis; assay: Antibacterial activity against Mycobacterium tuberculosis H37Ra assessed as reduction in bacterial growth incubated for 14 days by CLSI protocol based method; assay type: functional; settings: 336 h, time 14 day
[21] = test system: Mycolicibacterium smegmatis; assay: Antimycobacterial activity against Mycobacterium smegmatis mc2 155 assessed as reduction in bacterial growth; assay type: functional
[22] = test system: Mycolicibacterium fortuitum; assay: Antimycobacterial activity against Mycobacterium fortuitum; assay type: functional
[23] = test system: Mycobacterium tuberculosis; assay: Antimycobacterial activity against Mycobacterium tuberculosis H37Ra; assay type: functional, organism-based
[24] = test system: Mycobacterium tuberculosis; assay: Antitubercular activity against Mycobacterium tuberculosis H37Ra assessed as inhibition of bacterial growth; assay type: functional
[25] = test system: Mycobacterium tuberculosis; assay: Antimycobacterial activity against Mycobacterium tuberculosis H37Ra ATCC 25177 assessed as reduction in bacterial growth after 7 days by resazurin microtiter assay; assay type: functional; settings: H37Ra ATCC 25177, 168 h, time 7 day
[26] = test system: Staphylococcus aureus; assay: Antibacterial activity against Staphylococcus aureus assessed as reduction in microbial growth by CLSI based broth microdilution method; assay type: functional
[27] = test system: Staphylococcus aureus; assay: Antimicrobial activity against methicillin-resistant Staphylococcus aureus assessed as reduction in microbial growth after 24 to 48 hrs by microdilution susceptibility test; assay type: functional; settings: time 24-48 hrs
[28] = test system: Escherichia coli; assay: Antibacterial activity against Escherichia coli; assay type: functional
[29] = test system: Candida albicans; assay: Antifungal activity against Candida albicans ATCC 10231 assessed as fungal growth inhibition; assay type: functional

**Q.** `C=C[C@@H](O)C#CC#CC/C=C\CCCCCCCC` was tested. Which EC50 [1] did it give?
**A.** The EC50 was 48 µg/mL (≈ 186 µM).

**Q.** With `C=C[C@H](O)C#CC#CC/C=C\CCCCCCCC` as the molecule, how does the EC50 [2] read?
**A.** The EC50 was 26 µg/mL (≈ 101 µM).

**Q.** `CCCCCCCCCCCCCCCC[C@@H](O)C#CC#CCO` was tested. Which IC50 [3] did it give?
**A.** The IC50 was 1900 nM.

**Q.** And the IC50 [4]?
**A.** Its IC50 is 7700 nM.

**Q.** How did the IC50 [5] turn out when `C#CC(O)/C=C/C(O)CCCC(O)C(O)C#CC(O)C#CCCCC(O)/C=C/CCCCCCCCCCCCCCCCCCCCCC(O)C(O)C#CC(=O)O` (stereo not given) was run?
**A.** The IC50 was 25 µg/mL (≈ 30.7 µM).

**Q.** With `C=C[C@@H](C#CC#C[C@@H](CCCCCCCCC)NCCCC)OC(C)=O` as the molecule, how does the IC50 [6] read?
**A.** Its IC50 is 30 nM.

**Q.** What about the Activity [7] of the same molecule?
**A.** The Activity was 32%.

**Q.** With `C=C[C@@H](O)C#CC#C[C@H](O)c1cccs1` as the molecule, how does the EC50 [8] read?
**A.** The EC50 was 31 µg/mL (≈ 142 µM).

**Q.** Which MIC [9] does the source give for `C=C[C@H](O)C#CC#CC(O)/C=C\CCCCCCC` (stereo not given in full) here?
**A.** Its MIC is 4 µg/mL (≈ 15.4 µM).

**Q.** And the MIC [10]?
**A.** Its MIC is 2 µg/mL (≈ 7.68 µM).

**Q.** And the MIC [11]?
**A.** The MIC was 4 µg/mL.

**Q.** And the MIC [12]?
**A.** Its MIC is 4 µg/mL (≈ 15.4 µM).

**Q.** And the MIC [13]?
**A.** Its MIC is 2 µg/mL (≈ 7.68 µM).

**Q.** With `C=C[C@@H](O)C#CC#C[C@@H](O)c1cccs1` as the molecule, how does the EC50 [8] read?
**A.** Its EC50 is 3.3 µg/mL (≈ 15.1 µM).

**Q.** For `C#CC(O)/C=C/C(O)CCCC(O)C(O)C#CC(O)C#CCCCCC(=O)CCCCC/C=C/C(O)CCCCCCCCCCCCC(O)C(O)C(O)C#CC(=O)O` (stereo not given), which IC50 [5] is on record?
**A.** Its IC50 is 48 µg/mL (≈ 57.9 µM).

**Q.** How did the IC50 [6] turn out when `C=C[C@H](O)C#CC#C[C@@H](CCCCCCCCC)NC(=O)c1ccccc1` was run?
**A.** Its IC50 is 5 nM.

**Q.** With `C#CC(O)/C=C/C(O)CCCC(O)CC#CC(O)C#CC(O)CCCC(=O)CCCCC/C=C/C(O)CCCCCCCCCCCCC(O)C(O)C(O)C#CC(=O)O` (stereo not given) as the molecule, how does the IC50 [5] read?
**A.** The IC50 was 12 µg/mL (≈ 14.5 µM).

**Q.** `C=C[C@@H](C#CC#C[C@@H](O)CCCCCCCCC)OC(C)=O` was tested. Which IC50 [6] did it give?
**A.** Its IC50 is 1300 nM.

**Q.** What about the IC50 [14] of the same molecule?
**A.** The IC50 was 0.27 µg/mL (≈ 0.887 µM).

**Q.** For `C#CC(O)/C=C/C(O)CCCC(O)CC#CC(O)C#CCCCCC(=O)CCCCC/C=C/C(O)CCCCCCCCCCCCCC(O)C(O)C#CC(=O)O` (stereo not given), which IC50 [5] is on record?
**A.** Its IC50 is 12 µg/mL (≈ 15.1 µM).

**Q.** Which EC50 [8] does the source give for `C=CC(O)C#CC#CC(O)c1cccs1` (stereo not given) here?
**A.** Its EC50 is 2.1 µg/mL (≈ 9.62 µM).

**Q.** And the EC50 [15]?
**A.** Its EC50 is 4 µg/mL (≈ 18.3 µM).

**Q.** How did the IC50 [6] turn out when `C=C[C@H](O)C#CC#C[C@H](O)CCCCCCCCC` was run?
**A.** The IC50 was 13 nM.

**Q.** What about the Activity [7] of the same molecule?
**A.** The Activity was 41%.

**Q.** And the IC50 [14]?
**A.** The IC50 was 0.271 µg/mL (≈ 1.03 µM).

**Q.** What about the MIC [16] of the same molecule?
**A.** The MIC was 16 µM (≈ 4.2 µg/mL).

**Q.** And the MIC [17]?
**A.** The MIC was 8 µM (≈ 2.1 µg/mL).

**Q.** What about the MIC [18] of the same molecule?
**A.** The MIC was 2 µM (≈ 0.525 µg/mL).

**Q.** For `C=C[C@@H](C#CC#C[C@H](O)CCCCCCCCC)OC(C)=O`, which IC50 [6] is on record?
**A.** The IC50 was 630 nM.

**Q.** What about the IC50 [14] of the same molecule?
**A.** Its IC50 is 0.341 µg/mL (≈ 1.12 µM).

**Q.** What about the MIC [16] of the same molecule?
**A.** The MIC was 32 µM (≈ 9.74 µg/mL).

**Q.** And the MIC [17]?
**A.** Its MIC is 8 µM (≈ 2.44 µg/mL).

**Q.** And the MIC [18]?
**A.** The MIC was 8 µM (≈ 2.44 µg/mL).

**Q.** `C#CC(O)/C=C/CCCCCCCCC/C=C/CCCCCCCCC/C=C/C(O)C#C` (stereo not given) was tested. Which MIC [19] did it give?
**A.** Its MIC is 1.4 µM (≈ 0.617 µg/mL).

**Q.** Which MIC [20] does the source give for `C=C[C@@H](O)C#CC#CC[C@H]1O[C@H]1CCCCCCC` here?
**A.** The MIC was 6.13 µg/mL (≈ 23.5 µM).

**Q.** And the MIC [21]?
**A.** The MIC was 25 µg/mL (≈ 96 µM).

**Q.** With `C#CC(O)/C=C/C(O)CCCC(O)C(O)C#CC(O)C#CCCCCC(=O)CCCCC/C=C/C(O)CCCCCCCCCCCCCC(O)C(O)C#CC(=O)O` (stereo not given) as the molecule, how does the IC50 [5] read?
**A.** The IC50 was 25 µg/mL (≈ 30.7 µM).

**Q.** For `C=C[C@H](O)C#CC#C[C@H](O)c1cccs1`, which EC50 [8] is on record?
**A.** Its EC50 is 2.7 µg/mL (≈ 12.4 µM).

**Q.** With `C=C[C@@H](O)C#CC#CC/C=C\CCCCCCC` as the molecule, how does the MIC [11] read?
**A.** The MIC was 16 µM.

**Q.** And the MIC [22]?
**A.** The MIC was 16 µM (≈ 3.91 µg/mL).

**Q.** And the IC50 [23]?
**A.** The IC50 was 15000 nM.

**Q.** What about the MIC [24] of the same molecule?
**A.** Its MIC is 3.73 µg/mL (≈ 15.3 µM).

**Q.** And the MIC [20]?
**A.** The MIC was 6.25 µg/mL (≈ 25.6 µM).

**Q.** And the MIC [21]?
**A.** Its MIC is 12 µg/mL (≈ 49.1 µM).

**Q.** How did the MIC [25] turn out when `CCCC/C=C/C#CC#CCCCCCCCC(=O)O` [EXOCARPIC ACID] was run?
**A.** The MIC was 20 µg/mL (≈ 72.9 µM).

**Q.** For `C=C[C@@H](O)C#CC#C[C@@H](O)/C=C\CCCCCCC` [FALCARINDIOL], which MIC [20] is on record?
**A.** The MIC was 1.6 µg/mL (≈ 6.14 µM).

**Q.** What about the MIC [26] of the same molecule?
**A.** The MIC was 7.8 µg/mL.

**Q.** What about the MIC [27] of the same molecule?
**A.** The MIC was 16 µg/mL.

**Q.** For `CC[C@H](O)C#CC#C[C@@H](O)/C=C\CCCCCCCCOC(C)=O` [OPLOPANDIOL ACETATE], which MIC [28] is on record?
**A.** The MIC was over 50 µg/mL.

**Q.** Which MIC [29] does the source give for `CCCCCCC/C=C\[C@H](O)C#CC#C[C@@H](O)CC` [OPLOPANDIOL] here?
**A.** The MIC was 12 µg/mL (≈ 45.7 µM).
